Experimental data from patent publication US20040029787A1, “Use of substances with oxytocin activity against climacteric disorders” (priority 2000, published 2004).
Where “and” joins values, the source holds several entries; their conditions need not be identical. Identical values can stand only once.

What was measured:
ovariectomised rats [1] = experiment: Forward locomotion of ovariectomised rats after intravaginal oxytocin gel; format: in vivo, rat; design: forward locomotion, Minutes 1-15 / forward locomotion, Minutes 16-30 / forward locomotion, Minutes 1-30 / forward locomotion, Minutes 1-15, AVERAGE / forward locomotion, Minutes 16-30, AVERAGE / forward locomotion, Minutes 1-30, AVERAGE: unit not given here
Experimental: (§1) Female sexually mature Sprague-Dawley rats weighing 250-300 g were used (B & K Universal Sollentuna, Sweden). The rats were housed 5 to each cage with free access to food and tap water at 20±2° C. and with a 12 h light/12 h dark cycle for at least 3 weeks before and throughout the experimental period.
The ovaries of seven female rats were removed. After 2 weeks, the rats were treated with oxytocin gel given intravaginally (conc. 1 mg/ml). […] Most probably, there is an activation of nerves present in the vaginal mucous membrane.
The total experimental time is 30 minutes per rat, and the values in table I show the forward locomotion for the first 15 minutes, for the whole experimental time, and for the last 15 minutes.

[2] = tested on: rats with experimentally-induced polycystic ovaries; experiment: Oestradiol valerate induced polycystic ovaries (PCO) in rats, NGF and ovarian morphology; format: in vivo, rat; settings: oxytocin 1.0 mg/kg subcutaneously every third day
Experimental: (§2) Virgin adult cycling Sprague-Dawley rats weighing 300-350 g (Example 4) and 190-210 g (Example 5) and with regular 4-day oestrous cycles were used (Möllegaard, Denmark). The rats were housed 4 to each cage with free access to pelleted food and tap water at 22° C. and with a 12 h light/12 h dark cycle for at least 1 week before and throughout the experimental period.
Statistical analyses were carried out using the SPSS 8.0 software. NGF concentrations in the pituitary gland, the hypothalamus, the hippocampus, the ovary, and the adrenal glands were analysed and the groups compared using analyses of variance (ANOVA) followed by multiple comparison procedures Bonferroni test).
All rats (totally 59) received a single intramuscular injection either of oestradiol valerate (EV), oil, or 0.15 M NaCl (Kabi Pharmacia AB, Sweden) and were anaesthetised with enflurane. Twenty rats re injected with 4 mg EV in 0.2 ml oil/rat (ten rats in the control group and ten in the oxytocin treated). They were decapitated after 30 days to elucidate when the ovaries display characteristic features of well-defined PCO (Brawer et al., 1978, Supra; Brawer et al., 1986, supra). The oxytocin treated group received subcutaneous oxytocin 1.0 mg/kg subcutaneously every third day during the experimental period.

[3] = tested on: women two years into menopause with vaginal rash, pain and dryness; experiment: Double blind intravaginal oxytocin gel versus cellulose gel in 20 menopausal women, biopsy and interview; format: in vivo, human
Experimental: Besides, a further experiment was conducted, wherein 20 women, all of them at two years into menopause and otherwise healthy. None of them underwent hormone replacement therapy. All patients had objective and subjective symptoms of vaginal rash, pain and a feeling of dryness.
Ten patents were treated with oxytocin 1 mg/ml mixed with 1 ml close gel intravaginally during five consecutive days, whereas the remaining ten patients were treated with 1 ml cellulose gel intravaginally dog five consecutive days as control. Before treatment with either control or oxytocin gel we took a biopsy, this procedure was repeated after 5 days of treatment. The protocol was a double blind protocol, ie the microscopic evaluations were performed by the same experienced pathologist before the code was broken.

ovariectomised rats [4] = experiment: Hot flush model: tail skin temperature after naloxone withdrawal in morphine-addicted ovariectomised rats; format: in vivo, rat; settings: vehicle rats 5-6° C. elevation
Experimental: as §2
In this study, ovariectomised rats (300-350 g) were treated with oxytocin for 8 days subcutaneously. Rats were addicted to morphine by implanting a morphine pellet (75 mg each) subcutaneously on days 3 and 5 of treatment. On the last day of treatment, an infrared thermistor was placed above the tail of each animal and morphine addiction was withdrawn by naloxone injection (1.0 mg/kg, subcutaneously). Temperature measurements were taken for 1 h under ketamine (80 mg/kg. intramuscularly) anaesthesia.

ovariectomized rats = experiment: Bone loss in ovariectomized rats, densitometric and morphometric studies; format: in vivo, rat
Experimental: Four lots of 120-day-old female Wistar rats (mean±SD initial weight 273±28 g) were used. The rats were randomized into groups based on their body weight. […] Sample size was calculated in a pilot study after determining the variability of densitometric measurements.
All rats were fed standard chow feed containing 7.1 g/kg of calcium and 5 g/kg of phosphorus; the energy content of the feed was 3100 kcal/kg. A control group of 15 rats were not manipulated but fed the stud diet (control group, mean initial weight 269±31 g). A experimental group of 15 rats was ovariectomized at 120 days of life and given oxytocin for 10 days 1.0 mg/kg sc. (OVX+Oxy group, mean initial weight 277±32 g). A group of 15 rats underwent ovariectomy (OVX group, mean initial weight 282±27 g). […] The ovariectomy was performed as in previous studies [Rico H, Amo C, Revilla M, Arribas I, Gonzalez-Riola J, Villa L F, Rodriguez-Puyol M Etidronate versus Clodronate in the prevention of postovariectomy bone loss. An experimental study in rats. Clin Exp Rheumatol 1994, 12:301-304]. The manipulated rats were controlled to observe the development of intestinal function, alterations, and infection or dehiscence of surgical sutures. All rats received water ad libitum. The rats were kept for 30 days in the animal laboratory of department of Physiology and Pharmacology, Karolinska Institutet Living conditions (12 hours of light and 12 hours of darkness; mean room temperature 22° C.), habitat, and diet met current guidelines of the European Union. Weight was measured with a precision biomedical balance.
Densitometric and Morphometric Studies. After 30 days, all rats were anesthetized and killed by exsanguination from the abdominal aorta after being anesthetized with 4 mg/100 g body weight of sodium pentothal. The femur and 5th lumbar vertebra of rat were dissected and placed in an 85° C. water bath to remove soft tissue. Femoral length and vertebral height were measured with a caliper and bones were weighed on a precision balance. The BMC and BMD of the whole right femur and 5th lumbar vertebra were measured using a desitometer equipped with a special program for studying small […] and samples. The instrument was calibrated daily. Because of the influence of weight on bone mass in rate [Rico H, Amo C, Revilla M, Arribas I, Gonzalez-Riola J, Villa L F, Rodriguez-Puyol M Etidronate versus Clodronate in the prevention of postovariectomy bone loss. An experimental study in rats. Clin Exp Rheumatol 1994, 12:301-304] and human beings [Rico H, Revilla M, Villa L F, Alvarez de Buergo M A, Ruiz-Contreras D Determinants of total and regional bone mineral content and density in postpubertal normal women. Metabolism 1994, 43 :263-266], BMC was corrected for final body weight (BMC/BW). The BMC and BMD of the femurs and 5th lumbar vertebra were measured separately.

[5] = tested on: postmenopausal women with atrophic, ulcerous vaginal mucous membranes; experiment: Intravaginal oxytocin administration to postmenopausal women (seven women, inspection by gynaecologist); format: in vivo, human; settings: oxytocin 1 mg/ml mixed with 1 ml cellulose gel intravaginally
Experimental: Seven women at an age of 60-70 years, otherwise completely healthy, with expressed postmenopausal disorders in the form of white, thin, atrophic, easy-bleeding and ulcerous vaginal mucous membranes were included in the study. They were treated with oxytocin 1 mg/ml mixed with 1 ml cellulose gel intravaginally driving five consecutive days,
The treatment was effected by a gynaecologist who inspected the mucous membranes. After a treatment lasting 2-3 days, the mucous membranes had improved in that they looked like those in a female woman.
At the same time, it was observed that the mood of the women was improved. They seemed obviously happy and reported that they felt happy, and many of them had resumed their sex lives.

ovariectomised rats [6] = experiment: Tail-flick test in ovariectomised rats after intravaginal oxytocin; format: in vivo, rat; settings: tails in water at 51° C.; intravaginal oxytocin versus saline; FIG. 4
Experimental: One way of applying somatic discomfort to an organism is to subject a part of it to a high temperature. This relief effect of oxytocin was investigated in a tail-flick test. In this test the tails of ovariectomised rats were immersed in water at 51° C. With reference to FIG. 4, the latency time from the immersion of the tails to the withdrawal thereof were measured for rats treated with oxytocin (▴) and rats treated with saline (□). For each group of rats, the test sessions were accomplished three times with a period of 15 minutes between the sessions. […] A longer latency time means that the rat could stand the somatic discomfort better such as increased temperature ta it otherwise would do.

ovariectomised rats [7] = experiment: Subcutaneous oxytocin combined with hormone treatment in ovariectomised rats, plasma corticosterone and GH; format: in vivo, rat; settings: oxytocin 1 mg/kg s.c. five days, FIG. 2
Excerpt: FIG. 2 is a bar graph showing the plasma concentrations of corticosterone and growth hormone (GH) in ovariectomised rats subjected to subcutaneous treatment. Group A refers to rats treated with oestrogen, progesterone, and oxytocin. Group B refers to rats treated with oestragen and progesterone. Group C refers to rats treated with oxytocin. Group D refers to rats treated with saline.
as §1
In another experimental animal study, the effect of oxytocin (1 mg/kg given subcutaneously during five days) combined with hormone treatment was investigated. All treatment groups A-D each contained eight ovariectomised rats. […] Analogously to the insulin levels, the corticosterone and GH levels were normalised (but increased) by oxytocin treatment.

ovariectomised rats [8] = experiment: Weight change in ovariectomised rats given subcutaneous oxytocin; format: in vivo, rat
Experimental: as §1
A rat having its ovaries removed also gains weight compared to untreated rats.

ovariectomised rats [9] = experiment: Subcutaneous oxytocin administration to ovariectomised rats, endocrine study; format: in vivo, rat; settings: 1 mg/kg subcutaneously during five days
Experimental: as §1
Ovariectomy means removal of an ovary or ovaries and can eg be effected according to Merchentaler, I., Funkhouser, J. M., Carver, J. N, Lundeen, S. G., Ghosh, K, Winneker, R. C. The effect of estrogens and antiestrogens in a rat model for hot flush. Maturitas, Nov 16, 1998; 30(3): 307-316.
In an experimental animal study, eight ovariectomised rats were treated with oxytocin. The ovaries were removed in order to create a menopause-like situation. After a mouth, an endocrine study was made. The “menopausal” rats get a changed hormone balance. Their insulin levels and, to a certain extent their blood sugar levels rise, possibly in consequence of increased insulin resistance. Their cortisol and growth hormone levels decrease, which expresses an inability to mobilise calories for activity. An oxytocin treatment during five days (1 mg/kg given subcutaneously during five days) restored the hormone balance.

[10] = individual rats R1-R7, oxytocin gel 1 mg/ml intravaginally
[11] = ovariectomized rats, oxytocin 1.0 mg/kg sc for 10 days, after 30 days, mean ± SD

With oxytocin the “forward locomotion, Minutes 1-30, AVERAGE” value (ovariectomised rats [1]; average of 7 rats (SD 1.36), control average 24.71, T-test 0.03*) was 26.91, the “forward locomotion, Minutes 1-15, AVERAGE” value (ovariectomised rats [1]; average of 7 rats (SD 1.81), control average 27.10, T-test 0.04*) was 30.20 and the “forward locomotion, Minutes 16-30, AVERAGE” value (ovariectomised rats [1]; average of 7 rats (SD 2.86), control average 18.33, T-test 0,44 ns) was 20.13. The “forward locomotion, Minutes 1-30” value (ovariectomised rats [1]; [10]) was 27.7 (2×) and 25.3 and 25.1 and 26.3 and 28.7 and 27.6, the “forward locomotion, Minutes 16-30” value (ovariectomised rats [1]; [10]) was 20.3 and 19.8 and 17.7 and 23.2 and 21.6 and 15.3 and 23 and the “forward locomotion, Minutes 1-15” value (ovariectomised rats [1]; individual rats R1-R7, oxytocin gel 1 mg/ml intravaginally, two days after completed treatment) was 30.7 and 27.8 and 28.8 and 28.6 and 32.2 and 32.3 and 31. For the same compound, the “behaviour changes (motor activity such as forward locomotion)” value (ovariectomised rats [1]; two days after completed intravaginal treatment, compared to gel without oxytocin) was “increased motor activity”, the “concentrations of NGF in the ovaries” value ([2]; 30 days, compared to non-oxy-treated PCO rats) was “significantly lower” and the “ovarian morphology (PCO changes)” value ([2]; versus EV control group) was “significantly less changes”. For the same compound, the “inflammation in histology (biopsy)” value ([3]; after 5 days of treatment) was “no or a lesser degree of inflammation”, the “histology of vaginal epithelium (biopsy)” value ([3]; after 5 days of treatment, except cases with normal epithelium before treatment) was “normalization of the epithelium” and the “subjective relief in interviews” value ([3]; oxytocin 1 mg/ml in 1 ml gel intravaginally, five days, ten patients, versus cellulose gel control) was “expressed relief”. For the same compound, the “tail skin temperature increase (flashes) after naloxone” value (ovariectomised rats [4]; repeated oxytocin 1.0 mg/kg subcutaneous for 8 days) was “significantly inhibited”, the “F-BMC (femur bone mineral content)” value (ovariectomized rats; [11]) was 335 ± 37 mg and the “F-BMC/BW (femur BMC corrected for final body weight)” value (ovariectomized rats; [11]) was 1.12 ± 0.09 mg/g. For the same compound, the “F-BMD (femur bone mineral density)” value (ovariectomized rats; [11]) was 131 ± 18 mg/cm^2, the “Femur (femoral length)” value (ovariectomized rats; [11]) was 35.5 ± 1.3 mm and the “Femur (weight)” value (ovariectomized rats; [11]) was 712 ± 42 mg. The “V-BMC (5th lumbar vertebral bone mineral content)” value (ovariectomized rats; [11]) was 110 ± 16 mg, the “V-BMD (5th lumbar vertebral bone mineral density)” value (ovariectomized rats; [11]) was 107 ± 13 mg/cm^2 and the “Vertebra (5th lumbar vertebra weight)” value (ovariectomized rats; [11]) was 273 ± 32 mg. The “Vertebra (5th lumbar vertebral height)” value (ovariectomized rats; [11]) was 6.9 ± 0.6 mm, the Final weight (ovariectomized rats; ovariectomized rats, oxytocin 1.0 mg/kg sc for 10 days, after 30 days, mean ± SD, 15 rats) was 334 ± 31 g and the “bone loss in ovariectomized rats” value (ovariectomized rats; oxytocin treatment for 10 days) was “suppresses bone loss”. The “mood of the women” value [5] was “improved”, the “treatment time until mucous membranes had improved” value [5] was 2 to 3 days and the “ulcers of vaginal mucous membranes” value ([5]; after 2-3 days) was “all ulcers had disappeared”. For the same compound, the “state of vaginal mucous membranes on inspection” value ([5]; five consecutive days, seven women 60-70 years) was “improved”, the “tail-flick latency time (immersion to withdrawal)” value (ovariectomised rats [6]) was “increases the latency time” and the “plasma GH levels” value (ovariectomised rats [7]; compared with saline treated rats, eight rats per group) was “significantly higher”. The plasma corticosterone levels (ovariectomised rats [7]; compared with rats treated with oestrogen+progesterone) was “significantly higher”, the food intake (ovariectomised rats [8]; oxytocin for 10 days) was “do not eat less” and the “weight gain after ovariectomy” value (ovariectomised rats [8]; oxytocin for 10 days subcutaneously, versus saline controls, FIG. 3) was “do not gain weight as much”. The blood sugar levels (ovariectomised rats [9]; compared to NaCl controls) was “normalised” and the plasma insulin levels (ovariectomised rats [9]; compared to control rats treated with NaCl, FIG. 1) was “normalised ie lowered”.
In the case of `C#C[C@]1(O)CC[C@H]2[C@@H]3CCc4cc(O)ccc4[C@H]3CC[C@@]21C` [17-alpha-ethinyloestradiol], the “tail skin temperature increase (flashes) after naloxone” value (ovariectomised rats [4]; 0.1 m g subcutaneous) is reported as “significantly inhibited”.
